Laboratory results reported in patent publication US8623864B2, “Thioridazine and derivatives thereof for reversing anti-microbial drug-resistance” (NOA Sic Aps, priority 2003, dated 2014).
Read-outs that look alike come from different tables or passages of the source.

Experiments:
[1] = tested on: Mycobacterium tuberculosis; details: Ordway et al. 2003; cited from earlier work
[2] = tested on: human Enterococcus faecalis; test: Microdilution checkerboard, antibiotic plus resistance modifier; format: cell-based; details: Enterococcus faecalis, drug alone
Enterococcus faecalis = test: as above; format: cell-based
tumour cell lines = details: Akiyama et al. 1986; cited from earlier work
a known bacterial strain = test: MIC of erythromycin and thioridazine, alone and combined; format: cell-based
[3] = tested on: a common bacterial strain; test: MIC of oxacillin alone and combined with thioridazine; format: cell-based; details: read-out: effective MIC
[4] = strain A, read-out: MIC of single drug (microdilution checkerboard)
[5] = strain B, read-out: MIC of single drug (microdilution checkerboard)
[6] = strain C, read-out: MIC of single drug (microdilution checkerboard)
[7] = strain D, read-out: MIC of single drug (microdilution checkerboard)
[8] = strain E, read-out: MIC of single drug (microdilution checkerboard)
[9] = strain A, each drug in the combination AMP + THIO
[10] = strain A, each drug in the combination VAN + THIO
[11] = strain B, each drug in the combination AMP + THIO
[12] = strain B, each drug in the combination VAN + THIO
[13] = strain C, each drug in the combination AMP + THIO
[14] = strain C, each drug in the combination VAN + THIO
[15] = strain D, each drug in the combination AMP + THIO
[16] = strain D, each drug in the combination VAN + THIO
[17] = strain E, each drug in the combination AMP + THIO
[18] = strain E, each drug in the combination VAN + THIO
[19] = strain A, each drug in the combination AMP + PCP
[20] = strain A, each drug in the combination VAN + PCP
[21] = strain B, each drug in the combination AMP + PCP
[22] = strain B, each drug in the combination VAN + PCP
[23] = strain C, each drug in the combination AMP + PCP
[24] = strain C, each drug in the combination VAN + PCP
[25] = strain D, each drug in the combination AMP + PCP
[26] = strain D, each drug in the combination VAN + PCP
[27] = strain E, each drug in the combination AMP + PCP
[28] = strain E, each drug in the combination VAN + PCP

| Compound | MIC [2, 4] [µg/mL] | MIC [2, 5] [µg/mL] | MIC [2, 6] [µg/mL] | MIC [2, 7] [µg/mL] | MIC [2, 8] [µg/mL] | Combination of drugs (MIC) (Enterococcus faecalis; [9]) [µg/mL] | Combination of drugs (MIC) (Enterococcus faecalis; [10]) [µg/mL] | Combination of drugs (MIC) (Enterococcus faecalis; [11]) [µg/mL] | Combination of drugs (MIC) (Enterococcus faecalis; [12]) [µg/mL] | Combination of drugs (MIC) (Enterococcus faecalis; [13]) | Combination of drugs (MIC) (Enterococcus faecalis; [14]) [µg/mL] | Combination of drugs (MIC) (Enterococcus faecalis; [15]) [µg/mL] | Combination of drugs (MIC) (Enterococcus faecalis; [16]) [µg/mL] | Combination of drugs (MIC) (Enterococcus faecalis; [17]) [µg/mL] | Combination of drugs (MIC) (Enterococcus faecalis; [18]) [µg/mL] | MIC (a known bacterial strain) [µg/mL] | Combination of drugs (MIC) (Enterococcus faecalis; [19]) [µg/mL] | Combination of drugs (MIC) (Enterococcus faecalis; [20]) [µg/mL] | Combination of drugs (MIC) (Enterococcus faecalis; [21]) [µg/mL] | Combination of drugs (MIC) (Enterococcus faecalis; [22]) [µg/mL] | further results |
| --- | --- | --- | --- | --- | --- | --- | --- | --- | --- | --- | --- | --- | --- | --- | --- | --- | --- | --- | --- | --- | --- |
| CSc1ccc2c(c1)N(CCC1CCCCN1C)c1ccccc1S2 (racemic) [THIO, thioridazine] | 32 | 32 | 32 | 32 | 32 | 16 | 8 | 8 | 32 | AMP (4) + THIO (4) μg/ml | 4 | 4 | 8 | 8 | 2 | 16 |  |  |  |  | Ability to kill bacteria in vitro [1]: kill Mycobacterium tuberculosis in vitro; Reversal of resistance to antineoplastic agents (tumour cell lines): effective in reversing resistance to a variety of antineoplastic agents |
| CC[C@H]1OC(=O)[C@H](C)[C@@H](O[C@H]2C[C@@](C)(OC)[C@@H](O)[C@H](C)O2)[C@H](C)[C@@H](O[C@@H]2O[C@H](C)C[C@H](N(C)C)[C@H]2O)[C@](C)(O)C[C@@H](C)C(=O)[C@H](C)[C@@H](O)[C@]1(C)O [Erythromycin] |  |  |  |  |  |  |  |  |  |  |  |  |  |  |  | 24 |  |  |  |  | Erythromycin concentration needed in combination (a known bacterial strain; combined with 12 μg/ml of the levorotatory isomer of thioridazine): 1 µg/mL; Erythromycin concentration needed in combination (a known bacterial strain; combined with 12 μg/ml of thioridazine in racemic form): less than 8 μg/ml |
| CN1CCN(CCCN2c3ccccc3Sc3ccc(Cl)cc32)CC1 [PCP, prochlorperazine] | 32 | 64 | 32 | 32 | 32 |  |  |  |  |  |  |  |  |  |  |  | 0.25 | 16 | 16 | 16 | Combination of drugs (MIC) (Enterococcus faecalis; [23]): 0.5 µg/mL; Combination of drugs (MIC) (Enterococcus faecalis; [24]): 8 µg/mL; Combination of drugs (MIC) (Enterococcus faecalis; [25]): 8 µg/mL; Combination of drugs (MIC) (Enterococcus faecalis; [26]): 8 µg/mL; Combination of drugs (MIC) (Enterococcus faecalis; [27]): 16 µg/mL; Combination of drugs (MIC) (Enterococcus faecalis; [28]): 8 µg/mL |
| CC1(C)S[C@@H]2[C@H](NC(=O)[C@H](N)c3ccccc3)C(=O)N2[C@H]1C(=O)O [ampicillin] | 32 | 2 | 16 | 1 | 128 | 1 |  | 0.5 |  | AMP (4) + THIO (4) μg/ml |  | 0.25 |  | 16 |  |  | 32 |  | 0.5 |  | Combination of drugs (MIC) (Enterococcus faecalis; [23]): 8 µg/mL; Combination of drugs (MIC) (Enterococcus faecalis; [25]): 0.25 µg/mL; Combination of drugs (MIC) (Enterococcus faecalis; [27]): 64 µg/mL |
| Cc1onc(-c2ccccc2)c1C(=O)N[C@@H]1C(=O)N2[C@@H]1SC(C)(C)[C@@H]2C(=O)O [oxacillin] |  |  |  |  |  |  |  |  |  |  |  |  |  |  |  |  |  |  |  |  | MIC ([3]; combined with 8 μg/ml of thioridazine): 1 µg/mL; MIC ([3]; oxacillin alone, common bacterial strain): > 256 µg/mL |
| CN[C@H](CC(C)C)C(=O)N[C@H]1C(=O)N[C@@H](CC(N)=O)C(=O)N[C@H]2C(=O)N[C@H]3C(=O)N[C@H](C(=O)N[C@H](C(=O)O)c4cc(O)cc(O)c4-c4cc3ccc4O)[C@H](O)c3ccc(c(Cl)c3)Oc3cc2cc(c3O[C@@H]2O[C@H](CO)[C@@H](O)[C@H](O)[C@H]2O[C@H]2C[C@](C)(N)[C@H](O)[C@H](C)O2)Oc2ccc(cc2Cl)[C@H]1O [vancomycin] |  |  |  |  |  |  | 6 |  | 2 |  | 64 |  | 32 |  | 1 |  |  | 48 |  | 1 | MIC ([2]; read-out: MIC of single drug (microdilution checkerboard), strain A): 192 µg/mL; MIC ([2]; read-out: MIC of single drug (microdilution checkerboard), strain B): 4 µg/mL; MIC ([2]; read-out: MIC of single drug (microdilution checkerboard), strain C): 128 µg/mL; MIC ([2]; read-out: MIC of single drug (microdilution checkerboard), strain D): 500 µg/mL; MIC ([2]; read-out: MIC of single drug (microdilution checkerboard), strain E): 2 µg/mL; Combination of drugs (MIC) (Enterococcus faecalis; [24]): 64 µg/mL; Combination of drugs (MIC) (Enterococcus faecalis; [26]): 32 µg/mL; Combination of drugs (MIC) (Enterococcus faecalis; [28]): 0.5 µg/mL |
